# Patent publication US20230365533A1, “BICYCLOHEPTANE PYRROLIDINE OREXIN RECEPTOR AGONISTS” (MERCK SHARP & DOHME CORP., priority 2021, published 2023)
# Molecular target: T1, human OX2R (Homo sapiens, UniProt O43614)
# T1 construct: expressed in transfected cells; host or cells: CHO (Chinese hamster ovary) cells, grown under G418 selection
# T1 sequence (O43614 1-444): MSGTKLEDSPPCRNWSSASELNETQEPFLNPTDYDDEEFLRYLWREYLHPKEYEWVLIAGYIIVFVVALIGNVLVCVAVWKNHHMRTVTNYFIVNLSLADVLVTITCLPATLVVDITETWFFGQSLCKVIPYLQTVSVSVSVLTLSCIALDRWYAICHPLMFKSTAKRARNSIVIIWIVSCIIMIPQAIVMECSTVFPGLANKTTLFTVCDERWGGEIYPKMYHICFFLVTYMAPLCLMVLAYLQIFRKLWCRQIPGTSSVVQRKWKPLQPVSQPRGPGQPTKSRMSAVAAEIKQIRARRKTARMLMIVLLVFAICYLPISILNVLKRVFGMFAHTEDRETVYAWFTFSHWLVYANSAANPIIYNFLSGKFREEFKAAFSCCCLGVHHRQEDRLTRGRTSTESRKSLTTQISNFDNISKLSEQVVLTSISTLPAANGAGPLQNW
# Test: IPOne (IP-1) orexin receptor agonist assay in CHO cells expressing human OX2R
# Type: cell-based
# Conditions: CHO, percent of mean max effect of a reference compound at 1 uM with 100% activity vs Orexin A, human OX2R
# Method in brief: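 CHO cells with human OX2R treated 2 h at 37 °C with 10-point ½-log compound dilutions in stimulation buffer; IP-1 accumulation read by HTRF (665/620 nm) after 60 min detection. EC50 from four-parameter fit; % effect versus a 1 uM reference agonist.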
row,Emax [%],SMILES
1,94.6,"COC(=O)N1CC[C@H](NS(C)(=O)=O)[C@@H]1COC1CCC2(c3ncccn3)CC2C1 (mixture of isomers) [Example 21, methyl (2R,3S)-3-(methylsulfonamido)-2-(((6-(pyrimidin-2-yl)bicyclo[4.1.0]heptan-3-yl)oxy)methyl)pyrrolidine-1-carboxylate]"
2,74.4,"COC(=O)N1[C@H](C)C[C@H](NS(=O)(=O)N(C)C)[C@@H]1COC1CCC2(c3ncc(F)cn3)CC2C1 (single isomer, unassigned) [Example 167]"

# Same assay, conditions: IPOne assay, CHO cells expressing human OX2R, 2 hours incubation; read-out: hoX2R_IP IC50
row,IC50 [nM],SMILES
1,49.3,"COC(=O)N1[C@H](C)C[C@H](NS(=O)(=O)N2CCC2)[C@@H]1CO[C@@H]1CC[C@]2(c3ncc(F)cn3)C[C@@H]2C1 [Example 43, methyl (2R,3S,5R)-3-(azetidine-1-sulfonamido)-2-((((1R,3R,6S)-6-(5-fluoropyrimidin-2-yl)bicyclo[4.1.0]heptan-3-yl)oxy)methyl)-5-methylpyrrolidine-1-carboxylate]"
2,1.4,"COC(=O)N1[C@H](C)C[C@H](NS(C)(=O)=O)[C@@H]1CO[C@H]1CC[C@@]2(c3ncc(F)cn3)C[C@H]2C1 (single isomer, unassigned) [Example 137]"
3,0.93,"CCS(=O)(=O)N[C@H]1C[C@@H](C)N(C(=O)OC)[C@H]1CO[C@H]1CC[C@@]2(c3ncc(F)cn3)C[C@H]2C1 [Example 36, methyl (2R,3S,5R)-3-(ethylsulfonamido)-2-((((1S,3S,6R)-6-(5-fluoropyrimidin-2-yl)bicyclo[4.1.0]heptan-3-yl)oxy)methyl)-5-methylpyrrolidine-1-carboxylate]"
4,1.7,"C[C@@H]1C[C@H](NS(C)(=O)=O)[C@H](CO[C@H]2CC[C@@]3(c4ncc(F)cn4)C[C@H]3C2)N1C(=O)OCCF [Example 62, 2-Fluoroethyl (2R,3S,5R)-2-((((1S,3S,6R)-6-(5-fluoropyrimidin-2-yl)bicyclo[4.1.0]heptan-3-yl)oxy)methyl)-5-methyl-3-(methylsulfonamido)pyrrolidine-1-carboxylate]"
5,2.4,"COC(=O)N1[C@H](C(F)F)C[C@H](NS(=O)(=O)C(C)C)[C@@H]1COC1CCC2(c3ncc(F)cn3)CC2C1 (stereo partly drawn) [Example 120, methyl (2R,3S,5S)-5-(difluoromethyl)-2-(((6-(5-fluoropyrimidin-2-yl)bicyclo[4.1.0]heptan-3-yl)oxy)methyl)-3-((1-methylethyl)sulfonamido)pyrrolidine-1-carboxylate]"
6,13.4,"COC(=O)N1[C@H](C)C[C@H](NS(=O)(=O)C(C)C)[C@@H]1CO[C@@H]1CC[C@]2(c3ncc(F)cn3)C[C@@H]2C1 [Example 46, methyl (2R,3S,5R)-2-((((1R,3R,6S)-6-(5-fluoropyrimidin-2-yl)bicyclo[4.1.0]heptan-3-yl)oxy)methyl)-5-methyl-3-((1-methylethyl)sulfonamido)pyrrolidine-1-carboxylate]"
7,1,"COC(=O)N1[C@H](C)C[C@H](NS(=O)(=O)CF)[C@@H]1COC1CCC2(c3ncc(Br)cn3)CC2C1 (stereo partly drawn) [Example 89, methyl (2R,3S,5R)-2-(((6-(5-bromopyrimidin-2-yl)bicyclo[4.1.0]heptan-3-yl)oxy)methyl)-3-((fluoromethyl)sulfonamido)-5-methylpyrrolidine-1-carboxylate]"
8,1.7,"COC(=O)N1[C@H](C)C[C@H](NS(=O)(=O)CF)[C@@H]1COC1CCC2(c3ncc(Cl)cn3)CC2C1 (stereo partly drawn) [Example 94, methyl (2R,3S,5R)-2-(((6-(5-chloropyrimidin-2-yl)bicyclo[4.1.0]heptan-3-yl)oxy)methyl)-3-((fluoromethyl)sulfonamido)-5-methylpyrrolidine-1-carboxylate]"
9,8,"CC(C)OC(=O)N1[C@H](C)C[C@H](NS(C)(=O)=O)[C@@H]1CO[C@@H]1CC[C@]2(c3ncc(F)cn3)C[C@@H]2C1 (single isomer, unassigned) [Example 29]"
10,0.9,"CCS(=O)(=O)N[C@H]1[C@H]2CCC[C@H]2N(C(=O)OC)[C@H]1COC1CCC2(c3ncc(F)cn3)CC2C1 (stereo partly drawn) [Example 129, methyl (2R,3S,3aS,6aR)-3-(ethylsulfonamido)-2-(((6-(5-fluoropyrimidin-2-yl)bicyclo[4.1.0]heptan-3-yl)oxy)methyl)hexahydrocyclopenta[b]pyrrole-1(2H)-carboxylate]"
11,2.1,"COC(=O)N1[C@H](C)C[C@H](NS(=O)(=O)CCl)[C@@H]1CO[C@H]1CC[C@@]2(c3ncc(F)cn3)C[C@H]2C1 [Example 37, methyl (2R,3S,5R)-3-((chloromethyl)sulfonamido)-2-((((1S,3S,6R)-6-(5-fluoropyrimidin-2-yl)bicyclo[4.1.0]heptan-3-yl)oxy)methyl)-5-methylpyrrolidine-1-carboxylate]"
12,575,"COC(=O)N1[C@H](C)C[C@H](NS(=O)(=O)N(C)C)[C@@H]1COC1CCC2(c3ncc(F)cn3)CC2C1 (single isomer, unassigned) [Example 167]"
13,5.4,"CCCS(=O)(=O)N[C@H]1C[C@@H](C)N(C(=O)OC)[C@H]1CO[C@H]1CC[C@@]2(c3ncc(F)cn3)C[C@H]2C1 [Example 33, methyl (2R,3S,5R)-2-((((1S,3S,6R)-6-(5-fluoropyrimidin-2-yl)bicyclo[4.1.0]heptan-3-yl)oxy)methyl)-5-methyl-3-(propylsulfonamido)pyrrolidine-1-carboxylate]"
14,83.7,"COC(=O)N1[C@@H]2COC[C@@H]2C(NS(C)(=O)=O)[C@@H]1COC1CCC2(c3ncc(F)cn3)CC2C1 (mixture of isomers) [Example 134, methyl (2R,3aS,6aS)-2-(((6-(5-fluoropyrimidin-2-yl)bicyclo[4.1.0]heptan-3-yl)oxy)methyl)-3-(methylsulfonamido)hexahydro-1H-furo[3,4-b]pyrrole-1-carboxylate]"

# Second part, the compound before the results:
row,SMILES,IC50 [nM]
1,"COC(=O)N1[C@H](C)C[C@H](NS(C)(=O)=O)[C@@H]1COC1CCC2(c3ncc(F)c(C(F)F)n3)CC2C1 (stereo partly drawn) [Example 73, methyl (2R,3S,5R)-2-(((6-(4-(difluoromethyl)-5-fluoropyrimidin-2-yl)bicyclo[4.1.0]heptan-3-yl)oxy)methyl)-5-methyl-3-(methylsulfonamido)pyrrolidine-1-carboxylate]",220
2,"COC(=O)N1[C@H](C)C[C@H](NS(=O)(=O)N(C)C)[C@@H]1COC1CCC2(c3cnccn3)CC2C1 (single isomer, unassigned) [Example 11]",146
3,"CC(C)OC(=O)N1[C@H](C)C[C@H](NS(=O)(=O)CF)[C@@H]1COC1CCC2(c3ncc(Br)cn3)CC2C1 (stereo partly drawn) [Example 108, isopropyl (2R,3S,5R)-2-(((6-(5-bromopyrimidin-2-yl)bicyclo[4.1.0]heptan-3-yl)oxy)methyl)-3-((fluoromethyl)sulfonamido)-5-methylpyrrolidine-1-carboxylate]",7.4
4,"COC(=O)N1CC[C@H](NS(C)(=O)=O)[C@@H]1COC1CCC2(c3ncccn3)CC2C1 (mixture of isomers) [Example 21, methyl (2R,3S)-3-(methylsulfonamido)-2-(((6-(pyrimidin-2-yl)bicyclo[4.1.0]heptan-3-yl)oxy)methyl)pyrrolidine-1-carboxylate]",1620
5,"C[C@@H]1C[C@H](NS(C)(=O)=O)[C@H](CO[C@H]2CC[C@@]3(c4ncc(F)cn4)C[C@H]3C2)N1C(=O)OC[C@H]1[C@H](C)C1(F)F [Example 55, ((1R,3S)-2,2-difluoro-3-methylcyclopropyl)methyl (2R,3S,5R)-2-((((1S,3S,6R)-6-(5-fluoropyrimidin-2-yl)bicyclo[4.1.0]heptan-3-yl)oxy)methyl)-5-methyl-3-(methylsulfonamido)pyrrolidine-1-carboxylate]",1
6,"COC(=O)N1[C@H](C)C[C@H](NS(=O)(=O)N(C)C)[C@@H]1COC1CCC2(c3cnccn3)CC2C1 (stereo partly drawn) [Example 10, methyl (2R,3S,5R)-3-((N,N-dimethylsulfamoyl)amino)-5-methyl-2-(((6-(pyrazin-2-yl)bicyclo[4.1.0]heptan-3-yl)oxy)methyl)pyrrolidine-1-carboxylate]",323
7,"COC(=O)N1[C@H](C)C[C@H](NS(=O)(=O)N(C)C)[C@@H]1COC1CCC2(c3cccc(F)c3)CC2C1 (mixture of isomers) [Example 3, methyl (2R,3S,5R)-3-((N,N-dimethylsulfamoyl)amino)-2-(((6-(3-fluorophenyl)bicyclo[4.1.0]heptan-3-yl)oxy)methyl)-5-methylpyrrolidine-1-carboxylate]",187
8,"COC(=O)N1[C@H](C)C[C@H](NS(C)(=O)=O)[C@@H]1COC1CCC2(c3ncc(F)c(C)n3)CC2C1 (stereo partly drawn) [Example 77, methyl (2R,3S,5R)-2-(((6-(5-fluoro-4-methylpyrimidin-2-yl)bicyclo[4.1.0]heptan-3-yl)oxy)methyl)-5-methyl-3-(methylsulfonamido)pyrrolidine-1-carboxylate]",736
9,"COC(=O)N1[C@H](C)C[C@H](NS(C)(=O)=O)[C@@H]1COC1CCC2(c3ncc(OC(F)F)c(C)n3)CC2C1 (stereo partly drawn) [Example 75, methyl (2R,3S,5R)-2-(((6-(5-(difluoromethoxy)-4-methylpyrimidin-2-yl)bicyclo[4.1.0]heptan-3-yl)oxy)methyl)-5-methyl-3-(methylsulfonamido)pyrrolidine-1-carboxylate]",257
10,"C[C@@H]1C[C@H](NS(C)(=O)=O)[C@H](CO[C@H]2CC[C@@]3(c4ncc(F)cn4)C[C@H]3C2)N1C(=O)OCC(F)F [Example 66, 2,2-difluoroethyl (2R,3S,5R)-2-((((1S,3S,6R)-6-(5-fluoropyrimidin-2-yl)bicyclo[4.1.0]heptan-3-yl)oxy)methyl)-5-methyl-3-(methylsulfonamido)pyrrolidine-1-carboxylate]",0.6
